Experimental data: article PMC3020970, “K70Q Adds High-Level Tenofovir Resistance to “Q151M Complex” HIV Reverse Transcriptase through the Enhanced Discrimination Mechanism” (PLoS ONE, 2011)
Where a name gives a salt, the structure may show the parent alone.

Columns and labels:
Type in all cases: cell-based
HIV-1 NL4-3 strain (WT) = assay: microbe, parasite or virus in culture; settings: Human immunodeficiency virus 1, NL43; WT, MAGIC-5 cells, Table S1; read-out: EC50
Protocol: (§1) Susceptibilities to various RT inhibitors were determined using the MAGIC-5 cells which are HeLa cells stably transfected with a β-galactosidase gene under the control of an HIV long terminal repeat promoter, and with vectors that express the CD4 receptor and the CCR5 co-receptor under the control of the CMV promoter as described previously. Briefly, MAGIC-5 cells were infected with diluted virus stock (100 blue forming units) in the presence of increasing concentrations of RT inhibitors, cultured for 48 h, fixed, and stained with X-Gal (5-bromo-4-chloro-3-indolyl-β-D-galacto-pyranoside). The stained cells were counted under a light microscope.

[1] = system: HIV-1 clinical isolate 1 (Q151Mc-containing); assay: Single-cycle drug susceptibility assay (MAGIC-5 cells), clinical isolate 1; settings: Human immunodeficiency virus 1; clinical isolate 1, MAGIC-5 cells
Protocol: (§2) HIV was isolated from fresh plasma immediately after collection of clinical samples from study participants at the outpatient clinic of the AIDS Clinical Center (ACC), International Medical Center of Japan. The Institutional Review Board approved this study (IMCJ-H13-80) and a written consent was obtained from all participants.
as §1

[2] = system: HIV-1 clinical isolate 2 (Q151Mc + K70Q); assay: Single-cycle drug susceptibility assay (MAGIC-5 cells), clinical isolate 2; settings: Human immunodeficiency virus 1; clinical isolate 2, MAGIC-5 cells
Protocol: as §2, §1

HIV-1 WT = assay: Single-cycle drug susceptibility assay (MAGIC-5 cells), recombinant WT clone; settings: Human immunodeficiency virus 1, Table S2
Protocol: (§3) The NL4-3-based molecular clone was constructed by replacing the pol-coding region with the HIV-1 BH10 strain. […] Each molecular clone was transfected into COS-7 cells. Cells were grown for 48 h, and culture supernatants were harvested and stored at −80°C until use.
as §1

HIV-1 K70E = assay: Single-cycle drug susceptibility assay (MAGIC-5 cells); settings: for EC50: Human immunodeficiency virus 1, MAGIC-5, K70E; for Fold increase in EC50 compared to HIV-1 WT: K70E vs WT
Protocol: as §3, §1

HIV-1 K70G = assay: as above; settings: for EC50: Human immunodeficiency virus 1, MAGIC-5, K70G; for Fold increase in EC50 compared to HIV-1 WT: K70G vs WT
Protocol: as §3, §1

HIV-1 K70N = assay: as above; settings: for EC50: Human immunodeficiency virus 1, MAGIC-5, K70N; for Fold increase in EC50 compared to HIV-1 WT: K70N vs WT
Protocol: as §3, §1

HIV-1 K70Q = assay: as above; settings: for EC50: Human immunodeficiency virus 1, MAGIC-5, K70Q
Protocol: as §3, §1

HIV-1 K70R = assay: as above; settings: for EC50: Human immunodeficiency virus 1, MAGIC-5, K70R; for Fold increase in EC50 compared to HIV-1 WT: K70R vs WT
Protocol: as §3, §1

HIV-1 K70T = assay: as above; settings: for EC50: Human immunodeficiency virus 1, MAGIC-5, K70T; for Fold increase in EC50 compared to HIV-1 WT: K70T vs WT
Protocol: as §3, §1

HIV-1 Q151Mc/K70E = assay: as above; settings: for EC50: Human immunodeficiency virus 1, MAGIC-5, Q151Mc/K70E; for Fold increase in EC50 compared to HIV-1 Q151Mc: Q151Mc/K70E vs Q151Mc
Protocol: as §3, §1

HIV-1 Q151Mc/K70G = assay: as above; settings: for EC50: Human immunodeficiency virus 1, MAGIC-5, Q151Mc/K70G
Protocol: as §3, §1

HIV-1 Q151Mc/K70N = assay: as above; settings: for EC50: Human immunodeficiency virus 1, MAGIC-5, Q151Mc/K70N; for Fold increase in EC50 compared to HIV-1 Q151Mc: Q151Mc/K70N vs Q151Mc
Protocol: as §3, §1

HIV-1 Q151Mc/K70Q = assay: as above; settings: for EC50: Human immunodeficiency virus 1, MAGIC-5, Q151Mc/K70Q
Protocol: as §3, §1

HIV-1 Q151Mc/K70R = assay: as above; settings: for EC50: Human immunodeficiency virus 1, MAGIC-5, Q151Mc/K70R; for Fold increase in EC50 compared to HIV-1 Q151Mc: Q151Mc/K70R vs Q151Mc
Protocol: as §3, §1

HIV-1 Q151Mc/K70T = assay: as above; settings: for EC50: Human immunodeficiency virus 1, MAGIC-5, Q151Mc/K70T; for Fold increase in EC50 compared to HIV-1 Q151Mc: Q151Mc/K70T vs Q151Mc
Protocol: as §3, §1

HIV-1 Q151Mc = assay: as above; settings: Human immunodeficiency virus 1, MAGIC-5
Protocol: as §3, §1

SMILES | EC50 (HIV-1 NL4-3 strain (WT)) [nM] | EC50 [1] [nM] | EC50 [2] [nM] | EC50 (HIV-1 WT) [nM] | EC50 (HIV-1 K70E) [nM] | Fold increase in EC50 compared to HIV-1 WT (HIV-1 K70E) | EC50 (HIV-1 K70G) [nM] | Fold increase in EC50 compared to HIV-1 WT (HIV-1 K70G) | EC50 (HIV-1 K70N) [nM] | Fold increase in EC50 compared to HIV-1 WT (HIV-1 K70N) | EC50 (HIV-1 K70Q) [nM] | EC50 (HIV-1 K70R) [nM] | Fold increase in EC50 compared to HIV-1 WT (HIV-1 K70R) | EC50 (HIV-1 K70T) [nM] | Fold increase in EC50 compared to HIV-1 WT (HIV-1 K70T) | EC50 (HIV-1 Q151Mc/K70E) [nM] | Fold increase in EC50 compared to HIV-1 Q151Mc (HIV-1 Q151Mc/K70E) | EC50 (HIV-1 Q151Mc/K70G) [nM] | EC50 (HIV-1 Q151Mc/K70N) [nM] | Fold increase in EC50 compared to HIV-1 Q151Mc (HIV-1 Q151Mc/K70N) | other results
Cc1cn([C@H]2C=C[C@@H](CO)O2)c(=O)[nH]c1=O [d4T, stavudine] | 2000 ± 550 | 18300 ± 1530 | > 100000 | 2600 ± 230 | 16000 ± 2700 | (6.2) fold | 4300 ± 260 | (1.7) fold | 3400 ± 250 | (1.3) fold | 3000 ± 210 | 4300 ± 570 | (1.7) fold | 2200 ± 170 | (0.8) fold | 32000 ± 3600 | (1.3) fold | 115000 ± 5100 | 25000 ± 4000 | (1) fold | Fold increase in EC50 compared to HIV-1 WT (HIV-1 K70Q; K70Q vs WT): (1.2) fold; EC50 (HIV-1 Q151Mc/K70Q): 110000 ± 6600 nM; EC50 (HIV-1 Q151Mc/K70R): 44000 ± 4500 nM; Fold increase in EC50 compared to HIV-1 Q151Mc (HIV-1 Q151Mc/K70R): (1.8) fold; EC50 (HIV-1 Q151Mc/K70T): 16000 ± 2700 nM; Fold increase in EC50 compared to HIV-1 Q151Mc (HIV-1 Q151Mc/K70T): (0.6) fold; EC50 (HIV-1 Q151Mc): 25000 ± 2300 nM
CC(C)OC(=O)OCOP(=O)(CO[C@H](C)Cn1cnc2c(N)ncnc21)OCOC(=O)OC(C)C [TFV-DF, tenofovir disoproxil fumarate] | 20 ± 3 | 40 ± 10 | 120 ± 20 | 20 ± 4 | 20 ± 3 | (1) fold | 20 ± 3 | (1) fold | 20 ± 3 | (1) fold | 30 ± 3 | 20 ± 2 | (1) fold | 20 ± 3 | (1) fold | 30 ± 1 | (0.8) fold | 40 ± 2 | 60 ± 4 | (1.5) fold | Fold increase in EC50 compared to HIV-1 Q151Mc (HIV-1 Q151Mc/K70G; Q151Mc/K70G vs Q151Mc): (1) fold; EC50 (HIV-1 Q151Mc/K70Q): 200 ± 10 nM; Resistance (fold less susceptible than WT HIV-1) (HIV-1 Q151Mc/K70Q; K70Q/Q151Mc vs WT HIV-1): 10 fold; EC50 (HIV-1 Q151Mc/K70R): 30 ± 2 nM; Fold increase in EC50 compared to HIV-1 Q151Mc (HIV-1 Q151Mc/K70R): (0.8) fold; EC50 (HIV-1 Q151Mc/K70T): 50 ± 1 nM; Fold increase in EC50 compared to HIV-1 Q151Mc (HIV-1 Q151Mc/K70T): (1.3) fold; EC50 (HIV-1 Q151Mc): 40 ± 3 nM
